The supplement of paper PMC10307832

Columns and labels:
Assay in all cases: relative viability (nuclei count vs DMSO), 5 days (fraction); higher = more cells survive
VX-11e + Alpelisib = compound: CC1=CN=C(N=C1C2=CNC(=C2)C(=O)N[C@H](CO)C3=CC(=CC=C3)Cl)NC4=C(C=C(C=C4)F)Cl [VX-11e] + Cc1nc(NC(=O)N2CCC[C@H]2C(N)=O)sc1-c1ccnc(C(C)(C)C(F)(F)F)c1 [Alpelisib] (partner 2 µM)
Outline: (§1)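 Lung cancer cell lines in 1536-well plates were dosed by pin tool the day after seeding, either with one drug alone or with a fixed anchor-drug dose plus five library-drug doses (not always all listed) in √10 steps. After 5 days, cells were fixed and their nuclei stained in one step (final 0.05% Triton X-100, 1% formaldehyde, 1 ug/ml Hoechst), then counted on 4× images. Relative viability is the nuclei count in treated wells divided by that in vehicle wells. Values are medians of duplicate plates.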

VX-11e + Tozasertib = compound: CC1=CN=C(N=C1C2=CNC(=C2)C(=O)N[C@H](CO)C3=CC(=CC=C3)Cl)NC4=C(C=C(C=C4)F)Cl [VX-11e] + Cc1cc(Nc2cc(N3CCN(C)CC3)nc(Sc3ccc(NC(=O)C4CC4)cc3)n2)n[nH]1 [Tozasertib] (partner 0.1 µM)
Outline: as §1

VX-11e + Luminespib = compound: CC1=CN=C(N=C1C2=CNC(=C2)C(=O)N[C@H](CO)C3=CC(=CC=C3)Cl)NC4=C(C=C(C=C4)F)Cl [VX-11e] + CCNC(=O)c1noc(-c2cc(C(C)C)c(O)cc2O)c1-c1ccc(CN2CCOCC2)cc1 [Luminespib] (partner 0.01 µM)
Outline: as §1

VX-11e + Dasatinib = compound: CC1=CN=C(N=C1C2=CNC(=C2)C(=O)N[C@H](CO)C3=CC(=CC=C3)Cl)NC4=C(C=C(C=C4)F)Cl [VX-11e] + Cc1nc(Nc2ncc(C(=O)Nc3c(C)cccc3Cl)s2)cc(N2CCN(CCO)CC2)n1 [Dasatinib] (partner 0.075 µM)
Outline: as §1

PC-3 [JPC-3] gave a relative viability (VX-11e + Alpelisib; first compound 0.04 µM) of 1.03, a relative viability (VX-11e + Alpelisib; first compound 0.1265 µM) of 1.02 and a relative viability (VX-11e + Alpelisib; first compound 0.4 µM) of 1. For the same cell line, the relative viability (VX-11e + Alpelisib; first compound 1.265 µM) was 1.15, the relative viability (VX-11e + Alpelisib; first compound 4 µM) was 0.827 and the relative viability (VX-11e + Tozasertib; first compound 0.04 µM) was 0.892. It also gave a relative viability (VX-11e + Tozasertib; first compound 0.1265 µM) of 0.863, a relative viability (VX-11e + Tozasertib; first compound 0.4 µM) of 0.829 and a relative viability (VX-11e + Tozasertib; first compound 1.265 µM) of 0.926. It also gave a relative viability (VX-11e + Tozasertib; first compound 4 µM) of 0.729, a relative viability (VX-11e + Luminespib; first compound 0.04 µM) of 0.627 and a relative viability (VX-11e + Luminespib; first compound 0.1265 µM) of 0.595. The relative viability (VX-11e + Luminespib; first compound 0.4 µM) was 0.66, the relative viability (VX-11e + Luminespib; first compound 1.265 µM) was 0.744 and the relative viability (VX-11e + Luminespib; first compound 4 µM) was 0.591. It also gave a relative viability (VX-11e + Dasatinib; first compound 0.04 µM) of 0.904, a relative viability (VX-11e + Dasatinib; first compound 0.1265 µM) of 0.903 and a relative viability (VX-11e + Dasatinib; first compound 0.4 µM) of 0.886. For the same cell line, the relative viability (VX-11e + Dasatinib; first compound 1.265 µM) was 1.16 and the relative viability (VX-11e + Dasatinib; first compound 4 µM) was 0.883.

For PC-14, the relative viability (VX-11e + Alpelisib; first compound 0.04 µM) was 1.13, the relative viability (VX-11e + Alpelisib; first compound 0.1265 µM) was 0.916 and the relative viability (VX-11e + Alpelisib; first compound 0.4 µM) was 0.676. For the same cell line, the relative viability (VX-11e + Alpelisib; first compound 1.265 µM) was 0.918, the relative viability (VX-11e + Alpelisib; first compound 4 µM) was 0.459 and the relative viability (VX-11e + Tozasertib; first compound 0.04 µM) was 0.66. For the same cell line, the relative viability (VX-11e + Tozasertib; first compound 0.1265 µM) was 0.469, the relative viability (VX-11e + Tozasertib; first compound 0.4 µM) was 0.395 and the relative viability (VX-11e + Tozasertib; first compound 1.265 µM) was 0.331. For the same cell line, the relative viability (VX-11e + Tozasertib; first compound 4 µM) was 0.278, the relative viability (VX-11e + Luminespib; first compound 0.04 µM) was 0.199 and the relative viability (VX-11e + Luminespib; first compound 0.1265 µM) was 0.173. For the same cell line, the relative viability (VX-11e + Luminespib; first compound 1.265 µM) was 0.112, the relative viability (VX-11e + Luminespib; first compound 4 µM) was 0.172 and the relative viability (VX-11e + Dasatinib; first compound 0.04 µM) was 0.359. The relative viability (VX-11e + Dasatinib; first compound 0.1265 µM) was 0.237, the relative viability (VX-11e + Dasatinib; first compound 0.4 µM) was 0.168 and the relative viability (VX-11e + Dasatinib; first compound 1.265 µM) was 0.319. For the same cell line, the relative viability (VX-11e + Dasatinib; first compound 4 µM) was 0.109.

RERF-LC-KJ showed a relative viability (VX-11e + Alpelisib; first compound 0.04 µM) of 1.47, a relative viability (VX-11e + Alpelisib; first compound 0.1265 µM) of 0.739 and a relative viability (VX-11e + Alpelisib; first compound 1.265 µM) of 0.829. For the same cell line, the relative viability (VX-11e + Alpelisib; first compound 4 µM) was 0.551, the relative viability (VX-11e + Tozasertib; first compound 0.04 µM) was 0.529 and the relative viability (VX-11e + Tozasertib; first compound 0.1265 µM) was 0.452. For the same cell line, the relative viability (VX-11e + Tozasertib; first compound 0.4 µM) was 0.564, the relative viability (VX-11e + Tozasertib; first compound 1.265 µM) was 0.457 and the relative viability (VX-11e + Tozasertib; first compound 4 µM) was 0.29. For the same cell line, the relative viability (VX-11e + Luminespib; first compound 0.04 µM) was 1.32, the relative viability (VX-11e + Luminespib; first compound 0.1265 µM) was 1.06 and the relative viability (VX-11e + Luminespib; first compound 0.4 µM) was 1.05. The relative viability (VX-11e + Luminespib; first compound 1.265 µM) was 1.21, the relative viability (VX-11e + Luminespib; first compound 4 µM) was 1.11 and the relative viability (VX-11e + Dasatinib; first compound 0.04 µM) was 0.872. For the same cell line, the relative viability (VX-11e + Dasatinib; first compound 0.1265 µM) was 0.758, the relative viability (VX-11e + Dasatinib; first compound 0.4 µM) was 0.867 and the relative viability (VX-11e + Dasatinib; first compound 1.265 µM) was 0.71. For the same cell line, the relative viability (VX-11e + Dasatinib; first compound 4 µM) was 0.59.

Work on SK-LU-1 yielded a relative viability (VX-11e + Alpelisib; first compound 0.04 µM) of 1.26, a relative viability (VX-11e + Alpelisib; first compound 0.1265 µM) of 1.1 and a relative viability (VX-11e + Alpelisib; first compound 0.4 µM) of 1.05. The relative viability (VX-11e + Alpelisib; first compound 1.265 µM) was 0.592, the relative viability (VX-11e + Alpelisib; first compound 4 µM) was 0.263 and the relative viability (VX-11e + Tozasertib; first compound 0.04 µM) was 0.348. For the same cell line, the relative viability (VX-11e + Tozasertib; first compound 0.1265 µM) was 0.298, the relative viability (VX-11e + Tozasertib; first compound 1.265 µM) was 0.338 and the relative viability (VX-11e + Tozasertib; first compound 4 µM) was 0.194. The relative viability (VX-11e + Luminespib; first compound 0.04 µM) was 0.179, the relative viability (VX-11e + Luminespib; first compound 0.1265 µM) was 0.196 and the relative viability (VX-11e + Luminespib; first compound 1.265 µM) was 0.199. For the same cell line, the relative viability (VX-11e + Luminespib; first compound 4 µM) was 0.177, the relative viability (VX-11e + Dasatinib; first compound 0.04 µM) was 0.202 and the relative viability (VX-11e + Dasatinib; first compound 0.1265 µM) was 0.184. For the same cell line, the relative viability (VX-11e + Dasatinib; first compound 1.265 µM) was 0.147 and the relative viability (VX-11e + Dasatinib; first compound 4 µM) was 0.108.

SK-MES-1 showed a relative viability (VX-11e + Alpelisib; first compound 0.04 µM) of 1.31, a relative viability (VX-11e + Alpelisib; first compound 0.1265 µM) of 0.815 and a relative viability (VX-11e + Alpelisib; first compound 0.4 µM) of 0.718. For the same cell line, the relative viability (VX-11e + Alpelisib; first compound 1.265 µM) was 0.644, the relative viability (VX-11e + Alpelisib; first compound 4 µM) was 0.208 and the relative viability (VX-11e + Tozasertib; first compound 0.04 µM) was 0.884. It also gave a relative viability (VX-11e + Tozasertib; first compound 0.1265 µM) of 0.873, a relative viability (VX-11e + Tozasertib; first compound 0.4 µM) of 0.844 and a relative viability (VX-11e + Tozasertib; first compound 1.265 µM) of 0.908. The relative viability (VX-11e + Tozasertib; first compound 4 µM) was 0.376, the relative viability (VX-11e + Luminespib; first compound 0.04 µM) was 0.838 and the relative viability (VX-11e + Luminespib; first compound 0.1265 µM) was 0.634. For the same cell line, the relative viability (VX-11e + Luminespib; first compound 0.4 µM) was 0.766, the relative viability (VX-11e + Luminespib; first compound 1.265 µM) was 0.406 and the relative viability (VX-11e + Luminespib; first compound 4 µM) was 0.262. For the same cell line, the relative viability (VX-11e + Dasatinib; first compound 0.04 µM) was 0.403, the relative viability (VX-11e + Dasatinib; first compound 0.1265 µM) was 0.332 and the relative viability (VX-11e + Dasatinib; first compound 0.4 µM) was 0.393. It also gave a relative viability (VX-11e + Dasatinib; first compound 1.265 µM) of 0.188 and a relative viability (VX-11e + Dasatinib; first compound 4 µM) of 0.185.

In the case of SW 1573, the relative viability (VX-11e + Alpelisib; first compound 0.04 µM) is reported as 0.791, the relative viability (VX-11e + Alpelisib; first compound 0.1265 µM) is reported as 0.825 and the relative viability (VX-11e + Alpelisib; first compound 0.4 µM) is reported as 0.767. It also gave a relative viability (VX-11e + Alpelisib; first compound 1.265 µM) of 0.59, a relative viability (VX-11e + Alpelisib; first compound 4 µM) of 0.39 and a relative viability (VX-11e + Tozasertib; first compound 0.04 µM) of 0.237. The relative viability (VX-11e + Tozasertib; first compound 0.1265 µM) was 0.21, the relative viability (VX-11e + Tozasertib; first compound 0.4 µM) was 0.224 and the relative viability (VX-11e + Tozasertib; first compound 1.265 µM) was 0.154. For the same cell line, the relative viability (VX-11e + Tozasertib; first compound 4 µM) was 0.11, the relative viability (VX-11e + Luminespib; first compound 0.04 µM) was 0.233 and the relative viability (VX-11e + Luminespib; first compound 0.1265 µM) was 0.206. It also gave a relative viability (VX-11e + Luminespib; first compound 0.4 µM) of 0.23, a relative viability (VX-11e + Luminespib; first compound 1.265 µM) of 0.384 and a relative viability (VX-11e + Luminespib; first compound 4 µM) of 0.133. For the same cell line, the relative viability (VX-11e + Dasatinib; first compound 0.04 µM) was 0.656, the relative viability (VX-11e + Dasatinib; first compound 0.1265 µM) was 0.641 and the relative viability (VX-11e + Dasatinib; first compound 0.4 µM) was 0.718. For the same cell line, the relative viability (VX-11e + Dasatinib; first compound 1.265 µM) was 0.424 and the relative viability (VX-11e + Dasatinib; first compound 4 µM) was 0.28.

UMC-11 was tested, and the relative viability (VX-11e + Alpelisib; first compound 0.04 µM) was 0.921, the relative viability (VX-11e + Alpelisib; first compound 0.1265 µM) was 1 and the relative viability (VX-11e + Alpelisib; first compound 0.4 µM) was 0.962. It also gave a relative viability (VX-11e + Alpelisib; first compound 1.265 µM) of 0.97, a relative viability (VX-11e + Alpelisib; first compound 4 µM) of 0.973 and a relative viability (VX-11e + Tozasertib; first compound 0.04 µM) of 0.185. It also gave a relative viability (VX-11e + Tozasertib; first compound 0.1265 µM) of 0.201, a relative viability (VX-11e + Tozasertib; first compound 0.4 µM) of 0.206 and a relative viability (VX-11e + Tozasertib; first compound 1.265 µM) of 0.182. The relative viability (VX-11e + Tozasertib; first compound 4 µM) was 0.19, the relative viability (VX-11e + Luminespib; first compound 0.04 µM) was 1.01 and the relative viability (VX-11e + Luminespib; first compound 0.1265 µM) was 1.02. The relative viability (VX-11e + Luminespib; first compound 0.4 µM) was 1.02, the relative viability (VX-11e + Luminespib; first compound 1.265 µM) was 0.948 and the relative viability (VX-11e + Luminespib; first compound 4 µM) was 0.94. It also gave a relative viability (VX-11e + Dasatinib; first compound 0.04 µM) of 0.44, a relative viability (VX-11e + Dasatinib; first compound 0.1265 µM) of 0.42 and a relative viability (VX-11e + Dasatinib; first compound 0.4 µM) of 0.439. The relative viability (VX-11e + Dasatinib; first compound 1.265 µM) was 0.587 and the relative viability (VX-11e + Dasatinib; first compound 4 µM) was 0.464.
